We go through 3 molecules from article PMC8395335, “Serotonergic–Muscarinic Interaction within the Prefrontal Cortex as a Novel Target to Reverse Schizophrenia-Related Cognitive Symptoms” (International Journal of Molecular Sciences, 2021).

The test system of data set [1] is MK-801-treated mice. Kind of data set: Y-maze test (spontaneous alternations), MK-801-induced deficits. It is filed as in vivo. On the procedure: (§1) Drugs were administered on two different schedules: (1) acute administration of compounds 45 min (WAY100635—5-HT1A antagonist) or 30 min (VU0357017, VU152100, VU0238429, and F15599) before MK-801 (also administered once 30 min before the test in Y-maze or T1 in NOR test); and (2) prolonged administration (once per day for 7 consecutive days) of the compounds and MK-801 with the last administration 24 h before the test (NOR test) or at the day of the test (Y-maze). […] Schedules of administration are presented graphically in Figure 2. The subeffective doses of the compounds for acute administration in the NOR test were chosen based on our previous research (see: [22, 23]) while dose-dependent studies of the activity of the compounds in reversing disruptions in the Y-maze or after prolonged administration along with MK-801 were performed within this study. Different vehicles were used throughout the study: (1) 0.9% NaCl and (2) 10% Tween 80. Vehicles were administered to all animals (e.g., control mice and MK-801-treated mice) on the same schedule as drugs were administered to the appropriate drug-treated groups of mice. Neither solvent exerted effects on animal behavior.
(§2) Male Albino Swiss mice (Charles River, Sulzfeld, Germany) weighing 20–25 g at the beginning of the experiments were used in the studies. The animals were housed in a room with a 12:12 h light-dark cycle at a temperature of 22 ± 1 °C with food and water available ad libitum. The experimental groups consisted of 8–10 animals. All drugs were administered intraperitoneally (i.p.) at a volume of 10 mL/kg. The behavioral experiments were performed by an observer who was blinded to the treatment. The procedures were conducted in accordance with the European Communities Council Directive of 22 September 2010 (2010/63/EU) and Polish legislation acts concerning animal experimentation and were approved by the II Local Ethics Committee by the Maj Institute of Pharmacology, Polish Academy of Sciences in Krakow (15/2020, 240/2020).
(§3) In acute experiments, the tested compounds (alone or in combination) were administered 30 min before MK-801 (0.3 mg/kg), which was administered 30 min before the test or training trial (T1) in the NOR test. In chronic experiments, the tested compounds (alone or in combination) and MK-801 were administered for seven days. Behavioral tests were performed on the eighth day.
The Y-maze was performed using the methods described by Miedel et al. and Kraeuter et al. with minor modifications. A black, wooden Y-shaped apparatus with equal length arms (labeled A, B, or C) spaced 120 apart was used in the behavioral experiment. Visual clues were placed inside the maze and mounted to the back wall of each arm. The experiment was performed in a well-lit room. The mice were placed in the same starting arm and were allowed to freely explore the maze for 8 min. After each trial, the maze was wiped clean. The sequence and the number of arm entries were recorded to calculate the percentage of spontaneous alternations using the following formula: [(Number of alternations)/(Total arm entries − 2)] × 100. An arm entry was scored if the animal entered the arm with all paws. Consecutive entries into three distinct arms were scored as an alternation (e.g., ACB, but not ACA) in which sequences could overlap (e.g., ACBACABAC represents […] alternations).

In data set [2] the test system is MK-801-treated mice. The experiment in a line: Novel object recognition (NOR) test, MK-801-induced deficits. It is filed as in vivo. Here is the method: as §1, §2, §3
The NOR test was performed as described previously. Briefly, the habituation, training and test trial were carried out in a dark room in a black, plastic rectangular arena illuminated with a 355 lux bulb. During the habituation trial, the animals were allowed to explore the arena in the absence of objects (10 min/day for 2 days). The next day, the training (T1) and test (T2) trials were performed. Throughout T1, mice were allowed to freely explore two identical objects (5 min), one of which was subsequently replaced by a novel object in T2 (1 h later, 5 min of exploration). Time spent exploring (i.e., sniffing or touching) the familiar (Tfamiliar) or novel object (Tnovel) was measured by a trained observer, and then the recognition index was calculated for each mouse [(Tnovel − Tfamiliar)/(Tfamiliar + Tnovel)] × 100.

Data set [3] is described as follows: Pharmacokinetic analysis of drug-drug interactions (plasma, FC concentration, FC penetration). The class given is in vivo, mice. The conditions noted are these: Albino Swiss, mouse, in vivo, 30 min. Here is the method:
The experiment was performed using the methods described by Bridges et al. and in our previous studies.
The pharmacokinetic analysis was performed in the blood and prefrontal cortex. […] Plasma and FC samples were stored at −80 °C until analysis.
The investigated compounds were administered alone at the top dose (F15599—0.1 mg/kg, VU0357017—5 mg/kg, VU0152100—1 mg/kg, and VU0238429—5 mg/kg) and in combinations of muscarinic ligands at subeffective doses with F15599 at subeffective dose (F15599 + VU0357017 0.05 and 0.15 mg/kg, F15599 + VU0152100 0.05 and 0.05 mg/kg, F15599 + VU0238429 0.05 and 1 mg/kg). The FC and blood were collected on the eighth day, 30 min after administration. All mice were parallelly treated with MK-801 (0.3 mg/kg) for seven consecutive days.
On the day of analysis, frozen whole mouse brain tissues were weighed and homogenized in 1:2 (w/v) volumes of ice-cold acetonitrile containing 0.1% FA and the internal standard mix. Samples were homogenized using a Metal Bead Lysing Matrix, vortexed for 1 min, shaken for 20 min at 4 °C on Thermomixer C, and centrifuged at 14,000× g rpm for 20 min at 4 °C. Finally, 50 µL of supernatant were diluted with 0.1% FA in water (1:1, v/v) and analyzed using HPLC/MS/MS.
The sample extraction of plasma (20 μL) was performed after spiking with the internal standard mix using the protein precipitation method and three volumes of ice-cold acetonitrile containing 0.1% formic acid. The extract was vortexed, incubated on ice for 20 min and centrifuged at 14,000× g rpm for 20 min at 4 °C. The supernatant was diluted with 0.1% FA in water (1:1, v/v) and analyzed by means of HPLC/MS/MS using a QTRAP 4500 (AB Sciex) mass spectrometer in positive ion mode in Multiple Reaction Monitoring (MRM screening) coupled with UHPLC (NEXERA XR, Shimadzu). Chromatographic separation was achieved on a Synergi 4 µm Fusion-RP 80 A 50 × 2 mm (Phenomenex) column at a flow rate of 0.2 mL/min. The gradient program was as follows: 20% B (0.3 min), 20–100% B (1.7 min), 100% B (3 min), 100–20% B (0.1 min), 20% B (2 min), solvent A (95:5:0.1% formic acid in water:methanol) and solvent B (methanol containing 0.1% formic acid). The column temperature was set to 40 °C. Analyst software was used to control the instrument and collect data. The ion transfer tube temperature was 300 °C. The spray voltage, collision energy, declastering potential, and gas parameters were optimized to achieve the maximal response using the test compounds. Selected reaction monitoring was carried out using the transition parameters. Calibration curves were constructed, and a linear response was obtained in the range of 0.25–500 ng/mL (VU357017, VU0152100, and F15599) and 1.25–2500 ng/mL (VU0238429) by spiking known amounts of each compound in blank brain homogenates and plasma. For VU0357017 and F15599 IS VU0152100 was used as internal standard. Sample concentration of internal standard was 100 ng/mL for IS VU0238429 and 50 ng/mL for IS VU0152100.
Brain penetration was calculated as FC/plasma ratio × 100%.

Structures are written as SMILES.

In the case of `C[C@]12N[C@H](Cc3ccccc31)c1ccccc12` [MK-801], the “Disruption of spontaneous alternations in the Y-maze” value in the data set with MK-801-treated mice [1] (acute MK-801 (0.3 mg/kg) 30 min before test) was “induced typical disruption”. Also, in the data set with MK-801-treated mice [1] (prolonged MK-801, test performed 24 h after the last administration), the “Disruptive effect on animals' behavior in Y-maze” value was “lack of MK-801 disruptive effect”. Besides, the figures for the “Disruption in the recognition index (NOR)” value in the data set on MK-801-treated mice [2] (acute MK-801 (0.3 mg/kg) 30 min before T1) and in the data set with MK-801-treated mice [2] (seven days of MK-801 administration) were “induced typical disruption” and “induced a typical disruption”, respectively.

As for `COc1ccc(CNC(=O)c2sc3nc(C)cc(C)c3c2N)cc1` [VU0152100], the “Reversal of MK-801-induced disruptions in Y-maze by combined administration” value in the data set on MK-801-treated mice [1] (7 days, F15599 0.025 mg/kg with VU0152100 0.05 mg/kg (subeffective doses)) was “did not reverse”. The “Reversal of MK-801-induced reduction in spontaneous alternations in the Y-maze” value in the data set with MK-801-treated mice [1] (acute, 0.1-5 mg/kg i.p.) is on record as “No efficacy”. The “Effect of combined administration on spontaneous alternations in the Y-maze test” value in the data set with MK-801-treated mice [1] (acute, F15599 0.1 mg/kg with VU0152100 1 mg/kg, MK-801-treated) is “no effect”. Besides, the “Reversal of MK-801-induced deficits in the NOR test (recognition index)” value in the data set with MK-801-treated mice [2] (7 days with MK-801, 0.1 mg/kg i.p.) was “activity of VU0152100 was observed”; in the data set on MK-801-treated mice [2] (7 days with MK-801, 1 mg/kg) it was “activity of VU0152100 was observed”; in the data set on MK-801-treated mice [2] (7 days with MK-801, dose of 0.05), “ineffective”. The “Reversal of MK-801-induced disruptions in NOR test by combined administration” value in the data set with MK-801-treated mice [2] (7 days, F15599 0.05 mg/kg with VU0152100 0.05 mg/kg (subeffective doses)) is on record as “reversed”. Besides, in the data set with MK-801-treated mice [2] (acute, 1 mg/kg i.p., alone), the “Effect of top dose on MK-801-induced deficits in the NOR test” value was “pro-cognitive effect”. Moreover, the “Effect of combined administration on MK-801-induced memory deficits in the NOR test” value with MK-801-treated mice [2] (acute, subeffective doses, F15599 with VU0152100) is recorded as “no effect”. In addition, the “Increase of FC penetration after prolonged administration compared to acute” value in data set [3] was “ca. 50%”. For the same molecule, the “Increase of FC penetration when administered concomitantly with F15599” value in data set [3] is given as “more than 50%”.

Turning to `COc1ccccc1N1CCN(CCN(C(=O)C2CCCCC2)c2ccccn2)CC1` [WAY100635], the “Effect of WAY100635 on the pro-cognitive effect of muscarinic ligand in the NOR test” value with MK-801-treated mice [2] (acute, WAY100635 0.1 mg/kg 15 min before VU0152100 (1 mg/kg)) is recorded as “reversed the pro-cognitive effect”; with MK-801-treated mice [2] (acute, WAY100635 0.1 mg/kg 15 min before VU0238429 (5 mg/kg)), “reversed the pro-cognitive effect”; with MK-801-treated mice [2] (acute, WAY100635 0.1 mg/kg 15 min before VU0357017 (5 mg/kg)), “reversed the pro-cognitive effect”.
